Source: patent US4474961A, “1,10[8,9-Benz]phenanthroline” (Development Finance Corporation of New Zealand, priority 1982, dated 1984)

Columns and labels:
P388 leukaemia = experiment: P388 in vivo, life span of mice bearing intraperitoneal P388 leukaemia; parameters: species or system mice (F1 hybrid, DBA-2 male×C57 B1 female); details: for ILS (percentage increase in life span): at optimal dose, days 1, 5 and 9, controls survive 11 days on average, >20% statistically significant; for OD (O.D., optimal drug dose): solution in 0.1 ml of 30% v/v ethyl alcohol in water on days 1, 5 and 9, soluble acid addition salt
Excerpt: These have been shown by studies at the National Cancer Institute, U.S.A. to be useful for detecting agents with antitumor activity against clinical cancer (A. Goldin, J. M. Venditti, J. S. MacDonald, F. M. Mugia, J. E. Henney and V. T. De Vita, Europ.J. Cancer 17, 129-142, (1981). The abbreviations given in Table II are:
P388 in vivo--Tumour P388 cells were obtained as frozen stocks from Mason Research Inc., U.S.A. and passaged intraperitoneally according to standard methods (Cancer Chemother. Rep. 3, Part 3, page 9, 1972) in DBA-2 mice of either sex. Groups of six F1 hybrid mice (DBA-2 male×C57 B1 female, g weight 20±1 g) were injected intraperitoneally with 10^6 cells on day 0.
O.D.--optimal drug dose, in milligrams per kilogram, administered as a solution in 0.1 ml of 30% v/v ethyl alcohol in water on days 1, 5 and 9 after tumour inoculation. The drug is administered as a soluble acid addition salt.
ILS--percentage increase in life span of treated animals over that of groups of control animals injected with tumour alone. The average survival of control mice was 11 days. Values of ILS greater than 20% are considered statistically significant.

[1] = test system: murine L1210 leukaemia cells; experiment: L1210 in vitro, growth of cultured murine leukaemia cells; assay type: cell-based; details: Mus musculus, concentration that reduces counted number of leukaemia cells by 50% over 70 hours, read-out: ID50 (the source's name)
Excerpt: L1210 in vitro--The culture methods used are described in detail elsewhere (B. C. Baguley and R. Nash, Europ.J.Cancer, 17, 671-679 (1981). Acceptable reproducibility of data depends critically upon the maintenance of optimal culture conditions. L1210 cells were initially obtained from Dr. I. Wodinsky, Arthur D. Little Inc., Boston, U.S.A., under the auspices of the National Cancer Institute.
ID50 --the nanomolar concentration of drug which when added to cultures of murine L1210 leukaemia cells over a period of 70 hours, reduces the resultant counted number of leukaemia cells by 50% (B. C. Baguley and R. Nash, Europ.J.Cancer 17, 671-679 (1981).

tumour = details: earlier work, literature; cited from earlier work

IC50 [1]	Compound	Active (P388 leukaemia)	ILS (percentage increase in life span) (P388 leukaemia)	OD (O.D., optimal drug dose) (P388 leukaemia)	antitumour effect (tumour)
46 nM	COC(=O)Nc1ccc(Nc2c3ccccc3nc3c2ccc2cccnc23)c(OC)c1 [Compound 3]	Yes	95%	45 milligrams per kilogram	
26 nM	COc1cc(NS(C)(=O)=O)ccc1Nc1c2ccccc2nc2c1ccc1cccnc12 [Compound 1]	Yes	109%	13.3 milligrams per kilogram	

Second part, the compound before the results:

Compound	IC50 [1]	Active (P388 leukaemia)	ILS (percentage increase in life span) (P388 leukaemia)	OD (O.D., optimal drug dose) (P388 leukaemia)	antitumour effect (tumour)
CS(=O)(=O)Nc1ccc(Nc2c3ccccc3nc3c2ccc2cccnc23)cc1 [Compound 2]	58 nM	Yes	30%	150 milligrams per kilogram	
COC(=O)Nc1ccc(Nc2c3ccccc3nc3c2ccc2cccnc23)cc1 [Compound 4]	18 nM	Yes	64%	30 milligrams per kilogram	
COP(=O)(Nc1ccc(Nc2c3ccccc3nc3c2ccc2cccnc23)cc1)OC [Compound 5]	31 nM	Yes	64%	45 milligrams per kilogram	
CS(=O)(=O)Nc1ccc(Nc2c3ccccc3nc3ccccc23)cc1 [AMSA, 4'-(9-acridinylamino) methanesulphonanilide]					marked antitumour effect
